Key:
KIT(V654A) = biological target: T1, KIT(V654A) (Homo sapiens, UniProt P10721, V654A); assay: Cell free kinase inhibition assay; assay type: biochemical
T1 construct: purchased Carna Biosciences, Inc. (Kobe, Japan)

MET = biological target: T2, MET (Homo sapiens, UniProt P08581); assay: Cell free kinase inhibition assay; assay type: biochemical
T2 construct: purchased Carna Biosciences, Inc. (Kobe, Japan)

GSK3β = biological target: T3, GSK3β (Homo sapiens, UniProt P49841); assay: Cell free kinase inhibition assay; assay type: biochemical
T3 construct: purchased Carna Biosciences, Inc. (Kobe, Japan)

RO82-W-1 cells = assay: Antiproliferation assay (WST-8); assay type: cell-based, human; settings: Homo sapiens, 72 h; RO82-W-1 (DTC), antiproliferative, 3 days
PRKX = biological target: T4, PRKX (Homo sapiens, UniProt P51817); assay: Cell free kinase inhibition assay; assay type: biochemical
T4 construct: purchased Carna Biosciences, Inc. (Kobe, Japan)

TIE2 = biological target: T5, TIE2 (Homo sapiens, UniProt Q02763); assay: Cell free kinase inhibition assay; assay type: biochemical
T5 construct: purchased Carna Biosciences, Inc. (Kobe, Japan)

KIF5B-RET (wild-type) = biological target: T6, KIF5B-RET (wild-type) (Homo sapiens, UniProt P07949+P33176); assay: Western blot of RET phosphorylation in Nthy-ori 3-1 transfectants; assay type: cell-based; settings: 1 h
T6 construct: KIF5B N-terminal portion (fusion partner); expressed in transfected cells; host or cells: Nthy-ori 3-1 (human normal thyroid cells), plasmid pCLxIP KIF5B-RET
Excerpt: (§1) The human full-length KIF5B-RET gene was chemically synthesized by GenScript Corp. (Piscataway, NJ) and then amplified by polymerase chain reaction (PCR) using a primer set containing attB recombination sequences. ENTRY vectors for the Gateway cloning system (Life Technologies) were generated via the BP Clonase reaction using the PCR products and the plasmid pDONR221. The expression vector pCLxIP KIF5B-RET was generated via the LR Clonase reaction between each ENTRY vector and the destination vector pCLxIP-DEST [37]. Expression vectors for KIF5B-RET M918T were generated by introducing a point mutation into the pCLxIP KIF5B-RET expression vector.

KIF5B-RET (M918T) = biological target: T7, KIF5B-RET (M918T) (Homo sapiens, UniProt P07949+P33176, M918T); assay: as above; assay type: cell-based; settings: 1 h
T7 construct: KIF5B N-terminal portion (fusion partner); expressed in transfected cells; host or cells: Nthy-ori 3-1 (human normal thyroid cells), plasmid pCLxIP KIF5B-RET M918T
Excerpt: as §1

p70S6K = biological target: T8, p70S6K (Homo sapiens, UniProt P23443); assay: Cell free kinase inhibition assay; assay type: biochemical
T8 construct: purchased Carna Biosciences, Inc. (Kobe, Japan)

FAK = biological target: T9, FAK (Homo sapiens, UniProt Q05397); assay: Cell free kinase inhibition assay; assay type: biochemical
T9 construct: purchased Carna Biosciences, Inc. (Kobe, Japan)

RO82-W-1 xenograft = assay: Human thyroid cancer xenograft model, tumor growth; assay type: in vivo, nude mice
Protocol: Nude mice (CAnN.Cg-Foxn1nu/CrlCrlj, female, 5-6 weeks old) were obtained from Charles River Laboratories Japan (Kanagawa, Japan). Mice were maintained under specific pathogen-free conditions and housed in barrier facilities on a 12 h light/dark cycle, with food and water ad libitum. All procedures using laboratory animals were done in accordance with all applicable institutional and government regulatory guidelines and policies and were performed in an animal facility accredited by the Center for Accreditation of Laboratory Animal Care of the Japan Health Sciences Foundation.
Tumor cells were cultured in appropriate culture mediums. Cells were harvested with 0.05% or 0.25% (w/v) trypsin/EDTA and suspended with 50% (v/v) BD Matrigel (BD Biosciences, San Jose, CA) in the mixture of culture mediums at a density of 5–10 × 10^7 cells/mL. Then, 0.1-0.2 mL of the cell suspension was inoculated subcutaneously into the right flank region of each mouse. […] The tumor size was measured in two dimensions by using a caliper, and the volume was calculated by using the formula: tumor volume (mm^3) = 1/2 length (mm) × [width (mm)]^2. The change in tumor volume in the treated group relative to that in the control group was calculated according to the following formula: ΔT/C = (ΔT/ΔC) × 100%, where ΔT and ΔC are the change in tumor volume (i.e., growth) for the treated and vehicle control group, respectively. The percentage of tumor growth inhibition (%TGI) was calculated from the formula: [(1 − ΔT/ΔC) × 100].
Supplementary Fig. S7 Comparison of antitumor activity with antiangiogenesis activity in human differentiated thyroid cancer RO82-W-1 xenografts in nude mice.
Nude mice bearing RO82-W-1 xenografts […]
when tumor volumes reached about 200 mm3 (day 1). The tumor volume was measured on day 22. Each group consisted of 6 mice. Data are shown as means ± SD. * P < 0.05 compared with vehicle-treated mice.
(b) The percentage of tumor growth inhibition (%TGI). Each group consisted of 6 mice. Antitumor activity was calculated as %TGI at day 22. Data are shown as means ± SD. * P < 0.05 compared […]
analyze the relationship between antitumor activity (%TGI) and antiangiogenesis activity (percentage of […]
sorafenib-treated groups were plotted on the X- and Y-axes, respectively. %TGI and %MVI was determined as described in Materials and Methods. Analysis of covariance (ANCOVA) for %TGI was examined by using %MVI as a covariate (P<0.05)

IRAK4 = biological target: T10, IRAK4 (Homo sapiens, UniProt Q9NWZ3); assay: Cell free kinase inhibition assay; assay type: biochemical
T10 construct: purchased Carna Biosciences, Inc. (Kobe, Japan)
T10 sequence (Q9NWZ3 whole entry): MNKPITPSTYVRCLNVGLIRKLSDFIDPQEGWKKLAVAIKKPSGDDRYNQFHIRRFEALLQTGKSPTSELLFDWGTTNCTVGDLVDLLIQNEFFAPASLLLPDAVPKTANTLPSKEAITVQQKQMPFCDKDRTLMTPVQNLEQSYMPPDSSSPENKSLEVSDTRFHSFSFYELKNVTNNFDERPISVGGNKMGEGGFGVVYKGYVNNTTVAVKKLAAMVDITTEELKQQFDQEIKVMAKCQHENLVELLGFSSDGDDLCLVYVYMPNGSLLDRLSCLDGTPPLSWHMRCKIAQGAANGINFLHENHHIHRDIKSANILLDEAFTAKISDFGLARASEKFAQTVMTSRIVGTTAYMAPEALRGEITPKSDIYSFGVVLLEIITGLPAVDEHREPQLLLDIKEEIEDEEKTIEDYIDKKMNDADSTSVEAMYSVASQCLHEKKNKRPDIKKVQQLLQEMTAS

T8 sequence (P23443 whole entry): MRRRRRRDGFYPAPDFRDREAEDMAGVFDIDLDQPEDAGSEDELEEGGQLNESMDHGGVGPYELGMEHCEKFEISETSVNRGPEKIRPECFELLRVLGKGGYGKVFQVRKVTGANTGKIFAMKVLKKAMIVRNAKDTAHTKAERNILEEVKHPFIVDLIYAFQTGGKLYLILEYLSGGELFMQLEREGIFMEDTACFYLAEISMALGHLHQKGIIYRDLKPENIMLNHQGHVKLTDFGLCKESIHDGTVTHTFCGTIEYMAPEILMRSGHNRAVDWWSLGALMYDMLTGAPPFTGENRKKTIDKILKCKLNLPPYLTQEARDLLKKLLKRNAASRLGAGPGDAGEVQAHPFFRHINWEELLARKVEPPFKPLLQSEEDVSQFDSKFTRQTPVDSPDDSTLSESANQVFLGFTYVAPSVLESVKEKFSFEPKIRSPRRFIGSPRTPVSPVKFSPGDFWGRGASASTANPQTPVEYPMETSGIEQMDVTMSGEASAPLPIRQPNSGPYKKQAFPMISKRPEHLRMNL
T7 sequence (P07949 713-1063 M918T limits assumed, one chain of several): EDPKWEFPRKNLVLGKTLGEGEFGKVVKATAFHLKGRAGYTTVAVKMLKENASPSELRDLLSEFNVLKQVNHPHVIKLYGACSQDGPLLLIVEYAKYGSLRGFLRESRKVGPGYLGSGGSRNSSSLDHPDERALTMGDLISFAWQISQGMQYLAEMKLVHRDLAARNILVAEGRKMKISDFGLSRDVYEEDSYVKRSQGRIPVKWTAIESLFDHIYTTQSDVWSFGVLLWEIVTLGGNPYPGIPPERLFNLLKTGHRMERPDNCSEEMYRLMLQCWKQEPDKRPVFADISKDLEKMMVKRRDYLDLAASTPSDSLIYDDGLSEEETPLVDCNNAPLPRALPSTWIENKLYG
T1 sequence (P10721 26-976 V654A): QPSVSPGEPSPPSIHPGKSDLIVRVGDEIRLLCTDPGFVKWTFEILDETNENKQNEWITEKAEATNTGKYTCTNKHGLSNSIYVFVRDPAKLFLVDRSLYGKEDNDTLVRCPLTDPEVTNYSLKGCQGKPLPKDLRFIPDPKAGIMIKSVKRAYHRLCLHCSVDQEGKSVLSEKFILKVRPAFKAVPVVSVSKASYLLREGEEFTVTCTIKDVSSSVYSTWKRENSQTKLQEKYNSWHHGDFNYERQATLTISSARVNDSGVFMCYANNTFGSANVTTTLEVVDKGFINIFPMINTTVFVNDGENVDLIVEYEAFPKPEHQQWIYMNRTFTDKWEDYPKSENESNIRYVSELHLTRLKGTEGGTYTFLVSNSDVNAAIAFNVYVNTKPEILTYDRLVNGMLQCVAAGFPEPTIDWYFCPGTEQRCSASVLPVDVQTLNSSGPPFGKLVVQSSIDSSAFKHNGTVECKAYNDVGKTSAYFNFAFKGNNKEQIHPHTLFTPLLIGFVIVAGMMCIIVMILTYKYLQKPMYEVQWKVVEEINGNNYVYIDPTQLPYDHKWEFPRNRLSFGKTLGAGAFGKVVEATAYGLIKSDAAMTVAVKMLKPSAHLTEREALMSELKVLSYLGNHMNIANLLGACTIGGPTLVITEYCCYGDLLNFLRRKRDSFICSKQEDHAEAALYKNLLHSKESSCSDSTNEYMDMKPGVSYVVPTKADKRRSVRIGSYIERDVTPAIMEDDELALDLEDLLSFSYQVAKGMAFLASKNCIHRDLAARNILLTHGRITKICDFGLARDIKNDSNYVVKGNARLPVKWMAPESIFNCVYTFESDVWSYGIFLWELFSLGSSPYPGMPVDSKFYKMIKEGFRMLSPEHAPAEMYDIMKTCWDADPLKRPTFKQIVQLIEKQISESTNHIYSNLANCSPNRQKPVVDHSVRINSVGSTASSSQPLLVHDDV
T3 sequence (P49841 whole entry): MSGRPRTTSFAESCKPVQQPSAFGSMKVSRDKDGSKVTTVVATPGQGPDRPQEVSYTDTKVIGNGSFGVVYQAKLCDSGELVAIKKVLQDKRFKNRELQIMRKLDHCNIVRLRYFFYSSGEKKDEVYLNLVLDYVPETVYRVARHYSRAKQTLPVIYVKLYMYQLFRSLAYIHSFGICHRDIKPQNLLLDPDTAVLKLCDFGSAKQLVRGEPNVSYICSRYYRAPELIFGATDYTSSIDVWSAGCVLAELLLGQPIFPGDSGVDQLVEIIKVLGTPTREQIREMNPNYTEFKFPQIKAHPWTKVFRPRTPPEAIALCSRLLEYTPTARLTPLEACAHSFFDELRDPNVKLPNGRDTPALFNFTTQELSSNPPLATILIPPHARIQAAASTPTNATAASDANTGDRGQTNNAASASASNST
T9 sequence (Q05397 whole entry): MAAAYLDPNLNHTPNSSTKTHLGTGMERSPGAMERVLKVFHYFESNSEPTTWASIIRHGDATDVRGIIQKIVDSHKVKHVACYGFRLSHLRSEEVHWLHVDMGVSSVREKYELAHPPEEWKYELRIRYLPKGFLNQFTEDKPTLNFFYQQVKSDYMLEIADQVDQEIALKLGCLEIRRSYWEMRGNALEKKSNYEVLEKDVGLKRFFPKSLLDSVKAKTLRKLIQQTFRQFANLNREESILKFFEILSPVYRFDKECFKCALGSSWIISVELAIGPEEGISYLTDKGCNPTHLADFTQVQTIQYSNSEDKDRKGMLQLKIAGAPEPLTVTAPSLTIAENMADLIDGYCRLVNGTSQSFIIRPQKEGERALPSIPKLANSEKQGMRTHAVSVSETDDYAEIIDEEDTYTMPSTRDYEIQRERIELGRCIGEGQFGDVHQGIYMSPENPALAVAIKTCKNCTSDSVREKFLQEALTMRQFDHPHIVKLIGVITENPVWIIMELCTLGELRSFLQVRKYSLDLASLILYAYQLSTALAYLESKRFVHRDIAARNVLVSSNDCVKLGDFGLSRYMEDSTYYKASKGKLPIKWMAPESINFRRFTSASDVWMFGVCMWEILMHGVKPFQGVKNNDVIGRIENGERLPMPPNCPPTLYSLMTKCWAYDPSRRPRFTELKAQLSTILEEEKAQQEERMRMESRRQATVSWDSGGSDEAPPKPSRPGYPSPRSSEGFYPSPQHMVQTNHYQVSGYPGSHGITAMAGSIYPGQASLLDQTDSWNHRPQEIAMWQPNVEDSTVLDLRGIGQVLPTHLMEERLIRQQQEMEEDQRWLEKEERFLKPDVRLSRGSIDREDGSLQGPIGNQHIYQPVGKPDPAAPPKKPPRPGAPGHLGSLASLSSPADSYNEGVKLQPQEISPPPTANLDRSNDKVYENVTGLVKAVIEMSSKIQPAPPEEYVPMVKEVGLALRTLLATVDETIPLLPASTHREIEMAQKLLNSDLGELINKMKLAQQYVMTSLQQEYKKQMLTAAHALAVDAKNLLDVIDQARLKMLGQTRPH
T4 sequence (P51817 whole entry): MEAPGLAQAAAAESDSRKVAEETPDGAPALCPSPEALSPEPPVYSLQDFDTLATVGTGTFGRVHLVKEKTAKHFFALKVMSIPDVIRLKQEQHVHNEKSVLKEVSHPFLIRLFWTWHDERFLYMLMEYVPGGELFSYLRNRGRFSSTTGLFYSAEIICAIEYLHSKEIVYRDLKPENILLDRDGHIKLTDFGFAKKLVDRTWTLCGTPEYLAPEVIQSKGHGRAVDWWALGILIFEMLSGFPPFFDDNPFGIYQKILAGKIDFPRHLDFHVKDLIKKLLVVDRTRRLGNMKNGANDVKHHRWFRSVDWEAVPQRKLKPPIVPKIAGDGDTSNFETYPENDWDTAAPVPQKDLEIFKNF
T6 sequence (P07949 713-1063 limits assumed, one chain of several): as the sequence (P07949 713-1063 M918T limits assumed, one chain of several) above, with T206M counted along it

## COc1cc2nccc(Oc3ccc(NC(=O)NC4CC4)c(Cl)c3)c2cc1C(N)=O [Lenvatinib, Lenvatinib mesilate]
KIT(V654A)
  IC50: 0.52 µM
MET
  IC50: 0.52 µM
GSK3β
  IC50: > 10 µM
RO82-W-1 cells
  IC50: 3.8 µM
PRKX
  IC50: > 10 µM
TIE2
  IC50: 2.5 µM
KIF5B-RET (wild-type)
  phosphorylation of wild-type RET: inhibited
KIF5B-RET (M918T)
  phosphorylation of M918T mutant RET: inhibited
p70S6K
  IC50: > 10 µM
FAK
  IC50: > 10 µM
RO82-W-1 xenograft; RO82-W-1 xenograft, 1, 3, and 10 mg/kg oral once daily 14 days
  antitumor activity: significant antitumor activity
RO82-W-1 xenograft; RO82-W-1 xenografts, 100 mg/kg oral once daily 21 days, %TGI day 22
  antitumor activity compared with sorafenib (300 mg/kg): significant potent antitumor activity
RO82-W-1 xenograft; RO82-W-1 xenografts, ANCOVA
  antitumor activity (%TGI) normalized for angiogenesis inhibition (%MVI), versus sorafenib: stronger antitumor activity
IRAK4
  IC50: > 10 µM

Reference: article PMC4177084 (Journal of Thyroid Research, 2014)
